According to patent publication US8163929B2, “Dihydropyridone amides as P2X7 modulators” (Roche Palo Alto LLC, priority 2008, dated 2012):

Target: T1, P2X7 (UniProt Q99572)
T1 sequence (Q99572 1-595): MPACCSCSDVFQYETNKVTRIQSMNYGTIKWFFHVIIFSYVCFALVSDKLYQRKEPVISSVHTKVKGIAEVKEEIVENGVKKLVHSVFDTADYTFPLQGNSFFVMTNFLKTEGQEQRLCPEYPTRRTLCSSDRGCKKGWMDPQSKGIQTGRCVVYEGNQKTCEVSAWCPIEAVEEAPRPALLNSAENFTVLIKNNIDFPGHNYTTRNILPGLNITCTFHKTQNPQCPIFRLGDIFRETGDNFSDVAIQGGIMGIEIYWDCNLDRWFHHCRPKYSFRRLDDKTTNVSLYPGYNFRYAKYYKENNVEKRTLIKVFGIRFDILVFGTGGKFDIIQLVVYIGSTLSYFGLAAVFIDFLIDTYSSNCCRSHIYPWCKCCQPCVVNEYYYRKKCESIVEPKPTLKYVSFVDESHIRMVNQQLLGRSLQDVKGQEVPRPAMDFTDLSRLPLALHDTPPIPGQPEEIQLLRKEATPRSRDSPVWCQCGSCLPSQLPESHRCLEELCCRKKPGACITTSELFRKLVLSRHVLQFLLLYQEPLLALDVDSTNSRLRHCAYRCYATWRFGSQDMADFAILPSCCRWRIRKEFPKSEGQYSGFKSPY
Test: P2X7 activity of Table 1
Assay type: cell-based
Conditions: pIC50 values for P2X7
Procedure, shortened: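 FLIPR calcium flux with fluo-3 in 1321N1 cells expressing human P2X7 and HEK293 cells expressing rat P2X7, in HBSS with 2 mM CaCl2 and 2.5 mM probenecid. Antagonist pre-incubated 20 min at room temperature, then BzATP added (100 μM human, 5 μM rat). Peak response over 5 min normalised to 5 μM ionomycin.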

| SMILES | pIC50 |
| --- | --- |
| Cc1ccnc(-c2ccc(C)c(NC(=O)C3=CNC(=O)C[C@H]3c3ccc(F)cc3)c2)n1 [Compound 80, (S)-4-(4-Fluoro-phenyl)-6-oxo-1,4,5,6-tetrahydro-pyridine-3-carboxylic acid [2-methyl-5-(4-methyl-pyrimidin-2-yl)-phenyl]-amide] | 7.315 |
| Cc1ccc(-c2ccnn(C)c2=O)cc1NC(=O)C1=CN(C)C(=O)C[C@H]1c1ccc(F)cc1 [Compound 81, (S)-4-(4-Fluoro-phenyl)-1-methyl-6-oxo-1,4,5,6-tetrahydro-pyridine-3-carboxylic acid [2-methyl-5-(2-methyl-3-oxo-2,3-dihydro-pyridazin-4-yl)-phenyl]-amide] | 7.94 |
| Cc1ccc(-c2cncc(=O)[nH]2)cc1NC(=O)C1=CNC(=O)C[C@H]1c1ccc(F)cc1 [Compound 82, (S)-4-(4-Fluoro-phenyl)-6-oxo-1,4,5,6-tetrahydro-pyridine-3-carboxylic acid [2-methyl-5-(6-oxo-1,6-dihydro-pyrazin-2-yl)-phenyl]-amide] | 5.395 |
| Cc1ccc(-c2cc(C)n(CC(=O)O)n2)cc1NC(=O)C1=CNC(=O)C[C@H]1c1ccc(F)cc1 [Compound 83, [3-(3-{[(S)-4-(4-Fluoro-phenyl)-6-oxo-1,4,5,6-tetrahydro-pyridine-3-carbonyl]-amino}-4-methyl-phenyl)-5-methyl-pyrazol-1-yl]-acetic acid] | 6.335 |
| Cc1ccc(-c2ccn(CCO)n2)cc1NC(=O)C1=CNC(=O)C[C@H]1c1ccc(F)cc1 [Compound 84, (S)-4-(4-Fluoro-phenyl)-6-oxo-1,4,5,6-tetrahydro-pyridine-3-carboxylic acid {5-[1-(2-hydroxy-ethyl)-1H-pyrazol-3-yl]-2-methyl-phenyl}-amide] | 7.53 |
| Cc1ccc(-c2cc(C)n(CCO)n2)cc1NC(=O)C1=CNC(=O)CC1c1ccc(F)c(F)c1 (stereo not drawn) [Compound 85, 4-(3,4-Difluoro-phenyl)-6-oxo-1,4,5,6-tetrahydro-pyridine-3-carboxylic acid {5-[1-(2-hydroxy-ethyl)-5-methyl-1H-pyrazol-3-yl]-2-methyl-phenyl}-amide] | 7.375 |
| Cc1ccc(-c2ccnn(C)c2=O)cc1NC(=O)C1=CN(C)C(=O)C[C@H]1c1cccc(F)c1 [Compound 86, (S)-4-(3-Fluoro-phenyl)-1-methyl-6-oxo-1,4,5,6-tetrahydro-pyridine-3-carboxylic acid [2-methyl-5-(2-methyl-3-oxo-2,3-dihydro-pyridazin-4-yl)-phenyl]-amide] | 7.62 |
| Cc1ccc(-c2ccn[nH]c2=O)cc1NC(=O)C1=CN(C)C(=O)C[C@H]1c1cccc(F)c1 [Compound 87, (S)-4-(3-Fluoro-phenyl)-1-methyl-6-oxo-1,4,5,6-tetrahydro-pyridine-3-carboxylic acid [2-methyl-5-(3-oxo-2,3-dihydro-pyridazin-4-yl)-phenyl]-amide] | 7.884 |
| Cc1ccc(-n2ncccc2=O)cc1NC(=O)C1=CNC(=O)C[C@H]1c1cccc(F)c1 [Compound 89, (S)-4-(3-Fluoro-phenyl)-6-oxo-1,4,5,6-tetrahydro-pyridine-3-carboxylic acid [2-methyl-5-(6-oxo-6H-pyridazin-1-yl)-phenyl]-amide] | 7.53 |
| COC[C@H](O)Cn1nc(-c2ccc(C)c(NC(=O)C3=CN(C)C(=O)C[C@H]3c3cccc(F)c3)c2)cc1C [Compound 90, (S)-4-(3-Fluoro-phenyl)-1-methyl-6-oxo-1,4,5,6-tetrahydro-pyridine-3-carboxylic acid {5-[1-((R)-2-hydroxy-3-methoxy-propyl)-5-methyl-1H-pyrazol-3-yl]-2-methyl-phenyl}-amide] | 7.2 |
| COC[C@@H](O)Cn1nc(-c2ccc(C)c(NC(=O)C3=CNC(=O)C[C@H]3c3ccc(F)cc3)c2)cc1C [Compound 91, (S)-4-(4-Fluoro-phenyl)-6-oxo-1,4,5,6-tetrahydro-pyridine-3-carboxylic acid {5-[1-((S)-2-hydroxy-3-methoxy-propyl)-5-methyl-1H-pyrazol-3-yl]-2-methyl-phenyl}-amide] | 7.15 |
| COC[C@@H](O)Cn1nc(-c2ccc(C)c(NC(=O)C3=CN(C)C(=O)C[C@H]3c3ccc(F)cc3)c2)cc1C [Compound 92, (S)-4-(4-Fluoro-phenyl)-1-methyl-6-oxo-1,4,5,6-tetrahydro-pyridine-3-carboxylic acid {5-[1-((S)-2-hydroxy-3-methoxy-propyl)-5-methyl-1H-pyrazol-3-yl]-2-methyl-phenyl}-amide] | 6.615 |
| Cc1ccc(-c2ccnn(CCO)c2=O)cc1NC(=O)C1=CN(C)C(=O)C[C@H]1c1cccc(F)c1 [Compound 93, (S)-4-(3-Fluoro-phenyl)-1-methyl-6-oxo-1,4,5,6-tetrahydro-pyridine-3-carboxylic acid {5-[2-(2-hydroxy-ethyl)-3-oxo-2,3-dihydro-pyridazin-4-yl]-2-methyl-phenyl}-amide] | 7.5 |
| Cc1ccc(-c2ccnn(CCO)c2=O)cc1NC(=O)C1=CN(C)C(=O)C[C@H]1c1ccc(F)cc1 [Compound 94, (S)-4-(4-Fluoro-phenyl)-1-methyl-6-oxo-1,4,5,6-tetrahydro-pyridine-3-carboxylic acid {5-[2-(2-hydroxy-ethyl)-3-oxo-2,3-dihydro-pyridazin-4-yl]-2-methyl-phenyl}-amide] | 7.8 |
| Cc1ccc(-c2cc(C)n(CCO)n2)cc1NC(=O)C1=CNC(=O)CC1c1cc(F)cc(F)c1 (stereo not drawn) [Compound 95, 4-(3,5-Difluoro-phenyl)-6-oxo-1,4,5,6-tetrahydro-pyridine-3-carboxylic acid {5-[1-(2-hydroxy-ethyl)-5-methyl-1H-pyrazol-3-yl]-2-methyl-phenyl}-amide] | 7.85 |
| Cc1ccc(-c2ccc(C)c(NC(=O)C3=CNC(=O)C[C@H]3c3cccc(F)c3)c2)nn1 [Compound 96, (S)-4-(3-Fluoro-phenyl)-6-oxo-1,4,5,6-tetrahydro-pyridine-3-carboxylic acid [2-methyl-5-(6-methyl-pyridazin-3-yl)-phenyl]-amide] | 7.48 |
| Cc1ccc(-c2ncccn2)cc1NC(=O)C1=CNC(=O)C[C@H]1c1cccc(F)c1 [Compound 97, (S)-4-(3-Fluoro-phenyl)-6-oxo-1,4,5,6-tetrahydro-pyridine-3-carboxylic acid (2-methyl-5-pyrimidin-2-yl-phenyl)-amide] | 7.09 |
| Cc1ccc(-c2ccc(=O)n(C)n2)cc1NC(=O)C1=CNC(=O)C[C@H]1c1ccc(F)cc1 [Compound 98, (S)-4-(4-Fluoro-phenyl)-6-oxo-1,4,5,6-tetrahydro-pyridine-3-carboxylic acid [2-methyl-5-(1-methyl-6-oxo-1,6-dihydro-pyridazin-3-yl)-phenyl]-amide] | 6.52 |
| Cc1ccc(-c2ccc(=O)[nH]n2)cc1NC(=O)C1=CNC(=O)C[C@H]1c1ccc(F)cc1 [Compound 99, (S)-4-(4-Fluoro-phenyl)-6-oxo-1,4,5,6-tetrahydro-pyridine-3-carboxylic acid [2-methyl-5-(6-oxo-1,6-dihydro-pyridazin-3-yl)-phenyl]-amide] | 7.515 |
| Cc1ccc(-n2ncc(=O)n(CCO)c2=O)cc1NC(=O)C1=CN(C)C(=O)C[C@H]1c1ccc(F)cc1 [Compound 100, (S)-4-(4-Fluoro-phenyl)-1-methyl-6-oxo-1,4,5,6-tetrahydro-pyridine-3-carboxylic acid {5-[4-(2-hydroxy-ethyl)-3,5-dioxo-4,5-dihydro-3H-[1,2,4]triazin-2-yl]-2-methyl-phenyl}-amide] | 7.5 |
| Cc1ccc(-n2ncc(=O)n(CCO)c2=O)cc1NC(=O)C1=CN(C)C(=O)C[C@H]1c1cccc(F)c1 [Compound 101, (S)-4-(3-Fluoro-phenyl)-1-methyl-6-oxo-1,4,5,6-tetrahydro-pyridine-3-carboxylic acid {5-[4-(2-hydroxy-ethyl)-3,5-dioxo-4,5-dihydro-3H-[1,2,4]triazin-2-yl]-2-methyl-phenyl}-amide] | 7.57 |
| Cc1ccc(-c2cc(C(F)(F)F)[nH]n2)cc1NC(=O)C1=CNC(=O)C[C@H]1c1ccc(F)cc1 [Compound 102, (S)-4-(4-Fluoro-phenyl)-6-oxo-1,4,5,6-tetrahydro-pyridine-3-carboxylic acid [2-methyl-5-(5-trifluoromethyl-1H-pyrazol-3-yl)-phenyl]-amide] | 5.77 |
| COC[C@@H](O)Cn1nc(-c2ccc(C)c(NC(=O)C3=CN(C)C(=O)C[C@H]3c3cccc(F)c3)c2)cc1C [Compound 103, (S)-4-(3-Fluoro-phenyl)-1-methyl-6-oxo-1,4,5,6-tetrahydro-pyridine-3-carboxylic acid {5-[1-((S)-2-hydroxy-3-methoxy-propyl)-5-methyl-1H-pyrazol-3-yl]-2-methyl-phenyl}-amide] | 7.1 |
| COC[C@H](O)Cn1nccc(-c2ccc(C)c(NC(=O)C3=CN(C)C(=O)C[C@H]3c3cccc(F)c3)c2)c1=O [Compound 104, (S)-4-(3-Fluoro-phenyl)-1-methyl-6-oxo-1,4,5,6-tetrahydro-pyridine-3-carboxylic acid {5-[2-((R)-2-hydroxy-3-methoxy-propyl)-3-oxo-2,3-dihydro-pyridazin-4-yl]-2-methyl-phenyl}-amide] | 7.8 |
